Source: paper PMC8070256, “Feasibility of Developing Radiotracers for MDM2: Synthesis and Preliminary Evaluation of an ^18F-Labeled Analogue of the MDM2 Inhibitor SP-141” (Pharmaceuticals, 2021)
“And” between values parts separate entries of the source, which are not always exact repeats. Equal values may be shown once.

What was measured:
[1] = test system: athymic mice bearing HepG2 xenografts; assay: Tissue distribution studies in HepG2 xenografts; format: in vivo
Protocol: Based on the promising results obtained with [^18F]1 in vitro, tissue distribution studies were conducted in athymic mice bearing subcutaneous HepG2 tumor xenografts. HepG2 tumor model was selected because of the higher uptake of [^18F]1 in HepG2 cells and a substantial increase in the uptake in response to co-incubation with 100 µM SP-141, compared to that in MCF-7 cells (Figure 5). Groups of five mice were injected intravenously with [^18F]1 and euthanized at 0.5, 1, or 2 h post injection to determine the tissue distribution of [^18F]1. A separate group of animals (n = 4) were injected intraperitoneally with SP-141 (1.2 mg per mouse; ~140 µM) 30 min before [^18F]1 injection to assess the specificity of tracer uptake in tumors. […] At 30 min post injection, radioactivity levels in most organs were ≥3 %ID/g and decreased to ~2 %ID/g by 2 h.
All animal experiments were conducted in accordance with the regulations of the Duke University Institutional Animal Care and Use Committee (IACUC) under an IACUC-approved protocol. Tissue distribution studies were conducted in mice bearing subcutaneous HepG2 tumor xenografts. To generate the tumor model, male athymic mice (Jackson Labs, Farmington, CT, USA) were injected with 5 × 10^6 HepG2 cells suspended in DMEM and Matrigel (Corning®, Corning, NY, USA, 1:1, 100 µL) in the flank; tissue distribution studies were initiated when the tumor volume reached 200 mm^3. For these studies, groups of five mice were injected with [^18F]1 by the intravenous route and euthanized at 0.5, 1, or 2 h post injection (n = 5 per time point) to assess the tissue distribution of [^18F]1 as described previously. A separate group of animals (n = 4) was injected with SP-141 (1.2 mg per mouse; ~140 µM) by intraperitoneal injection 30 min before [^18F]1 injection to assess the specificity of tracer uptake. The concentration of ^18F activity was calculated as the percentage injected dose per gram tissue (%ID/g).

[2] = Lipophilicity, shake-flask partitioning between PBS (pH 7.4) and n-octanol; format: physicochemical; conditions: PBS (pH 7.4) / n-octanol, read-out: log D7.4
Protocol: The lipophilicity of [^18F]1 was determined by its partitioning between PBS (pH 7.4) and n-octanol by the shake-flask method as previously described.
An aliquot of [^18F]1 (0.37 MBq) was added to a mixture of PBS (pH 7.4) and n-octanol (2 mL each, n = 3) in polypropylene tubes. The mixture was vortexed for one minute, and the organic phase was separated by centrifugation (3000 rpm, 5 min). Next, aliquots of octanol (50 µL) and PBS (500 µL) were collected from each tube into preweighed Eppendorf® tubes and measured for radioactivity in an automated gamma counter (Wallac Wizard™, Perkin Elmer, Waltham, MA, USA). Samples were weighed, and the weights were converted to volume according to solvent density. The partition coefficient value was calculated as the ratio of radioactivity (counts per minute (CPM)/mL) in octanol to that in the aqueous phase.

[3] = 1 h Block: SP-141 (1.2 mg) i.p. 30 min before i.v. [^18F]1

With `[18F]CCOc1ccc2[nH]c3c(-c4cccc5ccccc45)nccc3c2c1` [[^18F]1] as the molecule, how does the “Biodistribution, Blood” value ([1]; 30 min post i.v. injection) read?
The value was 4.2 ± 0.6 %ID/g.

What about the “Biodistribution, Bone” value ([1]; 30 min post i.v. injection) of the same molecule?
Its value is 3.1 ± 0.6 %ID/g.

And the “Biodistribution, Brain” value ([1]; 30 min post i.v. injection)?
Its value is 2.9 ± 0.8 %ID/g.

What about the “Biodistribution, Heart” value ([1]; 30 min post i.v. injection) of the same molecule?
Its value is 4.1 ± 0.7 %ID/g.

And the “Biodistribution, Kidneys” value ([1]; 30 min post i.v. injection)?
Its value is 3.7 ± 0.8 %ID/g.

And the “Biodistribution, Large Intestine” value ([1]; 30 min post i.v. injection)?
The value was 6.1 ± 1.7 %ID/g.

And the “Biodistribution, Liver” value ([1]; 30 min post i.v. injection)?
Its value is 3.2 ± 0.5 %ID/g.

And the “Biodistribution, Lungs” value ([1]; 30 min post i.v. injection)?
The value was 3.9 ± 0.6 %ID/g.

And the “Biodistribution, Muscle” value ([1]; 30 min post i.v. injection)?
Its value is 3.5 ± 0.8 %ID/g.

And the “Biodistribution, Skin” value ([1]; 30 min post i.v. injection)?
The value was 3.7 ± 0.7 %ID/g.

What about the “Biodistribution, Small Intestine” value ([1]; 30 min post i.v. injection) of the same molecule?
Its value is 3.9 ± 1.0 %ID/g.

And the “Biodistribution, Spleen” value ([1]; 30 min post i.v. injection)?
Its value is 3.3 ± 0.4 %ID/g.

And the “Biodistribution, Stomach” value ([1]; 30 min post i.v. injection)?
Its value is 5.1 ± 2.0 %ID/g.

And the “Biodistribution, Tumor (HepG2 xenograft)” value ([1]; 30 min post i.v. injection)?
Its value is 3.3 ± 0.3 %ID/g.

What about the “Biodistribution, Blood” value [1, 3] of the same molecule?
Its value is 2.7 ± 0.9 %ID/g.

What about the “Biodistribution, Bone” value [1, 3] of the same molecule?
The value was 1.9 ± 0.4 %ID/g.

What about the “Biodistribution, Brain” value [1, 3] of the same molecule?
Its value is 3.3 ± 0.5 %ID/g.

What about the “Biodistribution, Heart” value [1, 3] of the same molecule?
The value was 3.7 ± 0.3 %ID/g.

What about the “Biodistribution, Kidneys” value [1, 3] of the same molecule?
The value was 3.8 ± 0.4 %ID/g.

And the “Biodistribution, Large Intestine” value [1, 3]?
The value was 3.4 ± 1.4 %ID/g.

And the “Biodistribution, Liver” value [1, 3]?
The value was 3.3 ± 0.6 %ID/g.

What about the “Biodistribution, Lungs” value [1, 3] of the same molecule?
Its value is 3.5 ± 0.8 %ID/g.

What about the “Biodistribution, Muscle” value [1, 3] of the same molecule?
The value was 3.3 ± 0.4 %ID/g.

And the “Biodistribution, Skin” value [1, 3]?
Its value is 3.0 ± 0.7 %ID/g.

What about the “Biodistribution, Small Intestine” value [1, 3] of the same molecule?
Its value is 4.1 ± 0.3 %ID/g.

What about the “Biodistribution, Spleen” value [1, 3] of the same molecule?
Its value is 3.0 ± 0.6 %ID/g.

What about the “Biodistribution, Stomach” value [1, 3] of the same molecule?
The value was 1.6 ± 1.2 %ID/g.

And the “Biodistribution, Tumor (HepG2 xenograft)” value [1, 3]?
The value was 3.2 ± 0.7 %ID/g.

And the “Biodistribution, Blood” value ([1]; 1 h post i.v. injection)?
Its value is 4.1 ± 0.6 %ID/g.

And the “Biodistribution, Bone” value ([1]; 1 h post i.v. injection)?
Its value is 3.6 ± 1.0 %ID/g.

And the “Biodistribution, Brain” value ([1]; 1 h post i.v. injection)?
The value was 2.6 ± 0.8 %ID/g.

And the “Biodistribution, Heart” value ([1]; 1 h post i.v. injection)?
Its value is 4.0 ± 0.7 %ID/g.

And the “Biodistribution, Kidneys” value ([1]; 1 h post i.v. injection)?
The value was 3.3 ± 0.6 %ID/g.

What about the “Biodistribution, Large Intestine” value ([1]; 1 h post i.v. injection) of the same molecule?
Its value is 7.7 ± 1.8 %ID/g.

What about the “Biodistribution, Liver” value ([1]; 1 h post i.v. injection) of the same molecule?
The value was 2.8 ± 0.4 %ID/g.

What about the “Biodistribution, Lungs” value ([1]; 1 h post i.v. injection) of the same molecule?
The value was 3.8 ± 0.7 %ID/g.

What about the “Biodistribution, Muscle” value ([1]; 1 h post i.v. injection) of the same molecule?
Its value is 2.6 ± 0.6 %ID/g.

What about the “Biodistribution, Skin” value ([1]; 1 h post i.v. injection) of the same molecule?
The value was 3.4 ± 0.5 %ID/g.

What about the “Biodistribution, Small Intestine” value ([1]; 1 h post i.v. injection) of the same molecule?
Its value is 4.0 ± 0.7 %ID/g.

What about the “Biodistribution, Spleen” value ([1]; 1 h post i.v. injection) of the same molecule?
Its value is 2.7 ± 0.7 %ID/g.

And the “Biodistribution, Stomach” value ([1]; 1 h post i.v. injection)?
The value was 2.7 ± 0.8 %ID/g.

What about the “Biodistribution, Tumor (HepG2 xenograft)” value ([1]; 1 h post i.v. injection) of the same molecule?
The value was 3.0 ± 0.7 %ID/g.

And the “Biodistribution, Blood” value ([1]; 2 h post i.v. injection)?
The value was 3.3 ± 0.8 %ID/g.

And the “Biodistribution, Bone” value ([1]; 2 h post i.v. injection)?
Its value is 5.4 ± 0.8 %ID/g.

And the “Biodistribution, Brain” value ([1]; 2 h post i.v. injection)?
Its value is 2.0 ± 0.7 %ID/g.

What about the “Biodistribution, Heart” value ([1]; 2 h post i.v. injection) of the same molecule?
Its value is 3.3 ± 0.9 %ID/g.

And the “Biodistribution, Kidneys” value ([1]; 2 h post i.v. injection)?
The value was 2.4 ± 0.6 %ID/g.

What about the “Biodistribution, Large Intestine” value ([1]; 2 h post i.v. injection) of the same molecule?
The value was 7.1 ± 2.9 %ID/g.

What about the “Biodistribution, Liver” value ([1]; 2 h post i.v. injection) of the same molecule?
Its value is 2.4 ± 0.5 %ID/g.

And the “Biodistribution, Lungs” value ([1]; 2 h post i.v. injection)?
The value was 2.1 ± 0.8 %ID/g.

And the “Biodistribution, Muscle” value ([1]; 2 h post i.v. injection)?
Its value is 2.6 ± 0.7 %ID/g.

What about the “Biodistribution, Skin” value ([1]; 2 h post i.v. injection) of the same molecule?
Its value is 3.1 ± 0.4 %ID/g.

And the “Biodistribution, Small Intestine” value ([1]; 2 h post i.v. injection)?
The value was 3.0 ± 0.5 %ID/g.

And the “Biodistribution, Spleen” value ([1]; 2 h post i.v. injection)?
Its value is 2.1 ± 0.4 %ID/g.

What about the “Biodistribution, Stomach” value ([1]; 2 h post i.v. injection) of the same molecule?
Its value is 2.1 ± 0.7 %ID/g.

What about the “Biodistribution, Tumor (HepG2 xenograft)” value ([1]; 2 h post i.v. injection) of the same molecule?
Its value is 3.0 ± 0.8 %ID/g.

What about the “Radioactivity levels in most organs / normal tissues” value ([1]; 2 h post injection) of the same molecule?
Its value is ~ 2 %ID/g and 2–3 %ID/g.

What about the Tumor-to-muscle ratio ([1]; 2 h post injection) of the same molecule?
The Tumor-to-muscle ratio was 1.14 ± 0.18.

And the “Tumor-to-normal tissue (tumor-to-background) ratios” value ([1]; 2 h post injection)?
Its value is under 2.

What about the “Tumor uptake and retention in HepG2 xenografts” value ([1]; over the 2-h observation period) of the same molecule?
Its value is ~ 3 %ID/g.

What about the logD [2] of the same molecule?
The logD was 2.35 ± 0.19.
